Measurements: patent publication US20190248888A1, “METHODS OF LOWERING BLOOD GLUCOSE LEVELS” (Regeneron Pharmaceuticals, Inc., priority 2016, published 2019)

Columns and labels:
αTC1-6 glucagonoma cells = test: αTC1-6 cell proliferation (CellTiter 96 Aqueous), WT and Slc38a5 KD; assay type: cell-based; conditions: 4 mM in culture medium, 5 days; for cell proliferation, Slc38a5 knock-down αTC1-6 cells: compared with wildtype cells
Text: Slc38a5 KO αTC1 clones were generated using CRISPR-Cas9 techniques. Target sequences (sgRNAs) were designed using an online sgRNA design tool from DNA2.0 (DNA2.0). The sgRNAs were cloned into the pSpCas9-2A-GFP-Puro vector using BsmBl (NEB) and αTC1 cells were transfected with Lipofectamine 2000 according to the manufacturers' instructions (Life Technologies). Clones with deletion mutations were verified by PCR amplifications, TaqMan analysis and RNA sequencing. […] Both WT and Slc38a5 KD αTC1/6 cells were prepared in an assay medium (MEM from Gibco), supplemented with 5% fetal bovine serum (FBS), 10 mM HEPES, and 100 IU/ml penicillin and 100 μg/ml streptomycin) and seeded on 96-well plates at a density of ˜15,000 cells per well in 4-6 replicates. Selected amino acids were added to the final concentration of 4 mM. Cell proliferations were measured every day using the CellTiter 96 Aqueous Cell Proliferation Assay (Promega) according to the manufacturer's instructions. Briefly, 20 μl of assay reagent was added to each well and the cell plates were incubated in a tissue culture incubator for 2.5 hours. Absorbance was measured at 490 nm on a plate reader SpectraMax Plus (Molecular Devices). Values were corrected for background absorbance using the averages of the wells containing assay medium only and plotted in Prism (GraphPad).

C57BL/6 mice = test: GCGR antibody with or without rapamycin in C57BL/6 mice: blood chemistry, islet cell mass; conditions: GCGR-antibody and rapamycin-treated mice
Experimental: C57BL/6 mice (males, 10 weeks of age, Taconic) were housed (5 mice per cage) in a controlled environment (12-h light/dark cycle, 22±1° C., 60-70% humidity) and fed ad libitum with standard chow (Purina Laboratory Rodent Diet 5001, LabDiet). Mice were assigned to study groups (n=10) based on baseline blood glucose levels. Mice were injected subcutaneously (sc) with GCGR antibody (3 mg/kg) or the control antibody (3 mg/kg) alone or in combination with rapamycin (10 mg/kg) or the vehicle. For the duration of the study, GCGR or control antibody was administered once weekly, whereas rapamycin or the vehicle was administered daily. Blood was collected from the tail for glucose measurements without fasting. Plasma samples were collected via submandibular bleeds at baseline and on day 21 after dosing for analysis of hormones and total amino acid levels. Seven days after the last antibody administration (day 21), mice were sacrificed, organs weighed and pancreata collected.
Pancreas α- and β-cell mass was measured as described elsewhere (Okamato et al., 2015, Endocrinology 156:2781-2794). α- and PP cell mass were determined using anti-somatostatin antibody (Sigma-Aldrich; #SAB4502861) and anti-pancreatic polypeptide antibody (Sigma-Aldrich; #SAB2500747). For quantifying Slc38a5 positive α-cells, pancreas sections were stained with human anti-glucagon and rabbit anti-Slc38a5 (Abcam; #ab72717) primary antibodies, and Alexa Fluor 488 labeled donkey anti-rabbit (Jackson ImmunoResearch; #711-545-152) and Alexa Fluor 594 donkey anti-human (Jackson ImmunoResearch; #709-585-149) secondary antibodies. For quantifying proliferating cells, Alexa Fluor 647 labeled anti-Ki67 (Abcam; #ab194724) was used in combination with anti-glucagon and anti-Slc38a5 antibodies. Slides were scanned using a Zeiss Axio Scan.Z1 slide scanner (Zeiss) and the images were analyzed using the Halo (Indica Labs).
Blood glucose was determined using ACCU-CHEK® Compact Plus (Roche Diagnostics). Plasma glucagon and insulin levels were determined using glucagon and mouse insulin ELISA (Mercodia). Plasma total amino acid levels were measured using L-Amino Acid Quantification Kit (Sigma-Aldrich).

SMILES | rate of cell proliferation, wildtype αTC1-6 cells (αTC1-6 glucagonoma cells) | cell proliferation, Slc38a5 knock-down αTC1-6 cells (αTC1-6 glucagonoma cells) | muscle mass (C57BL/6 mice)
C[C@H](N)C(=O)O [alanine] | significantly increased | to a much lesser extent | –
NC(=O)CC[C@H](N)C(=O)O [glutamine] | significantly increased | to a much lesser extent | –
CO[C@H]1C[C@@H]2CC[C@@H](C)[C@@](O)(O2)C(=O)C(=O)N2CCCC[C@H]2C(=O)O[C@H]([C@H](C)C[C@@H]2CC[C@@H](O)[C@H](OC)C2)CC(=O)[C@H](C)/C=C(\C)[C@@H](O)[C@@H](OC)C(=O)[C@H](C)C[C@H](C)/C=C/C=C/C=C/1C [rapamycin, reference compound] | – | – | small reduction
